Laboratory results published in publication PMC12383012 (Antioxidants, 2025).
“Also recorded” adds a separate entry of the source.

Tests used:
[1] = molecular target: T1, electric eel acetylcholinesterase (eeAChE) (Electrophorus electricus, UniProt O42275); test: Acetylcholinesterase inhibition (adapted Ellman's method); format: biochemical; conditions: read-out: AChE Inhib IC50
T1 construct: purchased
Experimental: (§1) The enzyme inhibition of electric eel acetylcholinesterase (eeAChE) and equine butyrylcholinesterase (eqBChE) was performed according to an adaptation of Elmman’s method. Stock solutions of 1 mg of each compound in 1 mL MeOH were prepared, and adequate dilutions were further made for each ligand. A control measurement (5 replicates without a ligand) and a calibration curve of 5 points with 3 replicates per point were conducted. Each solution included fixed volumes of 4-(2-hydroxyethyl)-1-piperazine-ethanesulfonic acid (HEPES) and cholinesterase (eeAChE or eqBChE), with different volumes of ligand solution. A blank solution containing HEPES and MeOH was also prepared at the same time. After 15 min of reaction, […] (AChI) or butyrylcholine iodide (BChI) and 5,5’-dithiobis-(2-nitrobenzoic acid) (DTNB) were added to both solutions contained in spectrophotometer cuvettes, and the absorbance at 405 nm was recorded for 5 min (time interval = 1 s, slid width = 1 nm). The slope for each calibration point (absorbance versus reaction time) was determined, and the percent inhibition was calculated by using the equation: %Inhibition=100−(vi/v0×100). where vi is the reaction rate (slope) for each point of the calibration with the ligand, and v0 is the initial reaction rate (slope) for the control point (without ligand). Finally, the five-point linear regression (10–50 µL of ligand solution) corresponding to the percentage of enzyme inhibition vs. the compound concentration allowed for the determination of the half maximal inhibitory concentration (IC50, µM) (compound concentration for which enzyme activity is reduced to half). Experiments were performed twice for each ligand. Statistical analysis was performed by a one-way analysis of variance (ANOVA) with a significance threshold set at p < 0.05.

[2] = tested on: SH-SY5Y human neuroblastoma cell line; test: Protection against iron/ascorbate-induced toxicity (MTT); format: cell-based; conditions: 1 h pre-treatment at highest nontoxic concentration, then 24 h with Fe/Asc
Experimental: (§2) Cell viability was assessed using the colorimetric MTT (3-(4,5-dimethylthiazol-2-yl)-2,5-diphenyltetrazolium bromide) assay, as previously described.
(§3) The compounds’ solutions (4AY1-6, 4BY1-3, and 4CY1) were prepared in DMSO to create stock solutions at a concentration of 25 mM, which were then stored at −20 °C. A concentration range from 0.5 µM to 20 µM was screened to identify the highest non-toxic dose. The SH-SY5Y human neuroblastoma cell line (ATCC-CRL-2266) was grown in Dulbecco’s modified Eagle’s medium (DMEM) (Thermo Fisher Scientific-Gibco, Waltham, MA, USA) supplemented with 10% heat-inactivated fetal calf serum, 50 U/mL penicillin, and 50 µg/mL streptomycin at 37 °C in a 5% CO2 atmosphere. The cells were seeded at a density of 0.1 × 10^6 cells/mL (when 48-well plates were used) or 0.15 × 10^6 cells/mL (when 24-well plates were used) one day before the experiment commenced. Following the seeding, the cells were treated with the selected concentrations of compounds for 24 h. After treatment, the cells were washed with PBS and incubated with 150 µL (in 48-well plates) or 200 µL (in 24-well plates) of MTT (0.5 mg/mL) for 2 h at 37 °C with 5% CO2. During this incubation, cellular dehydrogenases converted MTT into formazan crystals, which were subsequently dissolved in 150 µL (in 48-well plates) or 200 µL (in 24-well plates) of 0.04 M HCl/isopropanol, and the absorbance was measured at 570 nm.
To evaluate the compounds’ protective effects against toxicity induced by Aβ1–42 or iron/ascorbate, the cells were pre-treated with each compound for one hour before adding Aβ1–42 or iron/ascorbate, followed by an additional 24-h incubation. Aβ1–42 (Bachem, Torrance, CA, USA) was prepared in sterile water to create a 443 µM stock solution and was added to the cells at a final concentration of 1 µM. Ferrous sulfate and L-ascorbic acid (Sigma Chemical Co., St. Louis, MO, USA) were introduced into the medium at final concentrations of 5 mM and 2.5 mM, respectively. […]

Aβ1–42 = molecular target: T2, Aβ1–42 (Homo sapiens, UniProt P05067); test: Inhibition of Aβ1–42 self-aggregation (ThT fluorescence); format: biochemical; conditions: read-out: % Aβ42 Self-Agg Inhib; for inhibition at 20 µM: 24 h
T2 construct: the Aβ1–42 peptide (Shanghai Royobiotech Co., Ltd., Shanghai, China); purchased Shanghai Royobiotech Co., Ltd
Experimental: Firstly, the Aβ1–42 peptide (Shanghai Royobiotech Co., Ltd., Shanghai, China) was treated with 1,1,1,3,3,3-hexafluoropropan-2-ol (HFIP) and then dissolved in a CH3CN/Na2CO3 (300 μM)/NaOH (250 μM) (48.3:48.3:4.3, v/v/v) mixture in order to obtain a stable stock solution (500 μM).
Solutions of 1 mg of the assayed compounds in 2 mL of 1:1 (v/v) DMSO/MeOH (0.5 mg/mL) medium were prepared and then properly diluted with phosphate buffer (0.215 M, pH 8.0) to obtain a 120 μM final concentration. The Aβ1–42 self-aggregation inhibition assays were made based on a reported method, involving the fluorescence emission of thioflavin T (ThT). So, Aβ1–42 (40 μM) was incubated at 37 °C for 24 h in phosphate buffer and in the presence or absence of each ligand (40 μM for all compounds but 4AY4 and 4CY1, for which 20 μM was used). Then, […] 5 μM ThT in 50 mM glycine-NaOH (pH 8.5) buffer were added to each sample before transferring the samples to a 96-well microplate. Blank samples were also prepared without Aβ1–42. The ThT fluorescence was measured (446 and 485 nm excitation and emission wavelengths, respectively), and the percent of self-aggregation inhibition was determined by the equation:I% = 100 − (IFi/IF0 × 100) where IFi and IF0 are the fluorescence intensities, in the presence and the absence of the assayed compound, subtracted from the fluorescence intensities due to the respective blanks. The calculated values were obtained as the mean ± SEM of four different experiments conducted in duplicate. Statistical analysis was performed by a one-way analysis of variance (ANOVA) with a significance threshold set at p < 0.05.

[3] = Free-radical-scavenging assay (DPPH method); conditions: for % AA (radical-scavenging activity): compound concentration 100 μM; for EC50: read-out: AA EC50
Experimental: The percentage of radical-scavenging activity (%AA, antioxidant capacity) of the RIV hybrids was first determined by the 2,2-diphenyl-1-picrylhydrazyl (DPPH) method using a compound concentration of 100 μM. […] Each calibration point was kept 30 min in darkness, and afterwards, the absorbance was measured at 517 nm. The corresponding antioxidant activity (%AA) was calculated using the equation %AA=ADPPH−Aligand/ADPPH×100. From the plot of %AA versus ligand concentration, EC50 was determined. Three independent experiments were performed, and a statistical analysis was conducted by a one-way analysis of variance (ANOVA) with the significance threshold set at p < 0.05.
The RIV hybrids were screened for their radical-scavenging activity by using the DPPH method. These assays were conducted in two stages: first, preliminary analyses were performed for all the compounds to evaluate the percentage of radical-scavenging activity by using a compound concentration of 100 μM. Afterwards, the compounds showing more than 50% antioxidant activity (AA), under those conditions, were further assessed to evaluate the respective EC50 values.

[4] = tested on: SH-SY5Y human neuroblastoma cell line; test: Cell viability dose-response screening (MTT); format: cell-based; conditions: 24 h
Experimental: as §2, §3

[5] = molecular target: T3, equine butyrylcholinesterase (eqBChE) (Equus caballus, UniProt P81908); test: Butyrylcholinesterase inhibition (adapted Ellman's method); format: biochemical; conditions: for SI (selectivity index): SI = IC50 (AChE)/IC50 (BChE); for IC50: eqBChE, read-out: BChE Inhib IC50
T3 construct: purchased
Experimental: as §1

T1 sequence (O42275 24-633): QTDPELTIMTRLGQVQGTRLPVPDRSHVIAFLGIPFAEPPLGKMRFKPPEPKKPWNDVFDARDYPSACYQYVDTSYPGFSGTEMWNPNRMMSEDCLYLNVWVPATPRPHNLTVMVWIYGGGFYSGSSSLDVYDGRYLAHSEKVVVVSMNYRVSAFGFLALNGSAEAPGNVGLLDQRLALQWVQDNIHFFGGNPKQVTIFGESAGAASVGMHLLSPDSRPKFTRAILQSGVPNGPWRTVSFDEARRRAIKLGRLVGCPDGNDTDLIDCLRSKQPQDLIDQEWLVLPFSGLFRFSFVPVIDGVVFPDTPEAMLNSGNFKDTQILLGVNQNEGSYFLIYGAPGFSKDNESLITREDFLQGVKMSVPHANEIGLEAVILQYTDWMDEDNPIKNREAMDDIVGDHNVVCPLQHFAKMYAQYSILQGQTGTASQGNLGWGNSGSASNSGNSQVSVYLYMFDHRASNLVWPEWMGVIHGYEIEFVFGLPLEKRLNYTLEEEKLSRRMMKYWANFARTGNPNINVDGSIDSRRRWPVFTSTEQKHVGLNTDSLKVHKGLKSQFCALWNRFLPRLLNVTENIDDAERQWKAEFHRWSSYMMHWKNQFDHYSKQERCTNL
T2 sequence (P05067 672-713): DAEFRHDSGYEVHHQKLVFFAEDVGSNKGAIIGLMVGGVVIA
T3 sequence (P81908 whole entry): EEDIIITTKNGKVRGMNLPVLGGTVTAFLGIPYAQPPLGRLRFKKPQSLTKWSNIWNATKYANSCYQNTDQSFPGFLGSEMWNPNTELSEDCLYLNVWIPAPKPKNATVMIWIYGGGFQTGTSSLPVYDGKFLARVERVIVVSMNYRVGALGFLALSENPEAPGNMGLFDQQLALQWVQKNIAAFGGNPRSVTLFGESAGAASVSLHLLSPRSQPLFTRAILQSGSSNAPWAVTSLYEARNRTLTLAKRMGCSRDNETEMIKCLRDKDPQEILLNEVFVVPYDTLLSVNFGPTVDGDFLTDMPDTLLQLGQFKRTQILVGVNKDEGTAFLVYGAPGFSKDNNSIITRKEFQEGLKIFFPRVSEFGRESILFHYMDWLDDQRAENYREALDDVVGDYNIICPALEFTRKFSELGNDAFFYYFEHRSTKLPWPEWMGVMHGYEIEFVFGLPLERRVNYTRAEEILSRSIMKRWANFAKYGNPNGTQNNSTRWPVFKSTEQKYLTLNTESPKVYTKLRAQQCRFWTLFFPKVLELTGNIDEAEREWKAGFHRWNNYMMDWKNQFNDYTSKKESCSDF

| Compound | IC50 [1] | rescue of cell viability after iron/ascorbate treatment [2] | inhibition at 40 µM (Aβ1–42) | % AA (radical-scavenging activity) [3] | EC50 [3] | highest nontoxic concentration [4] | SI (selectivity index) [5] | IC50 [5] | inhibition at 20 µM (Aβ1–42) | highest nontoxic concentration ([4]; dose given for the Aβ1–42 experiments) | highest nontoxic concentration ([4]; dose given for the iron/ascorbate experiments) |
| --- | --- | --- | --- | --- | --- | --- | --- | --- | --- | --- | --- |
| CCN(C)C(=O)Oc1cccc(CNC(=O)C2(C)CCc3c(C)c(O)c(C)c(C)c3O2)c1 (centres unmarked) [4BY2, 3-((6-Hydroxy-2,5,7,8-tetramethylchromane-2-carboxamido)methyl)phenyl ethyl(methyl)carbamate] | 32 ± 2 µM | capable of rescuing the cell viability; also recorded: significantly improved cell viability | 47 ± 3% | 93.9 ± 0.4% | 20 ± 0.8 µM | 1 µM | 8.6 | 3.7 ± 0.1 µM |  |  |  |
| CCN(C)C(=O)Oc1cccc(CNC(=O)c2cc(OC)c(O)c(OC)c2)c1 [4BY1, 3-((4-Hydroxy-3,5-dimethoxybenzamido)methyl)phenyl ethyl(methyl)carbamate] | > 200 µM |  | 58 ± 6% | <50% |  | 15 µM |  | 75 ± 0.6 µM |  |  |  |
| CCN(C)C(=O)Oc1cccc(CNC(=O)/C=C/c2ccc3c(c2)OCO3)c1 [4BY3, (E)-3-((3-(Benzo[d][1,3]dioxol-5-yl)acrylamido)methyl)phenyl ethyl(methyl)carbamate] | 91 ± 6 µM |  | 29 ± 3% | <50% |  | 1 µM | 101 | 0.9 ± 0.2 µM |  |  |  |
| Cc1c(C)c2c(c(C)c1O)CCC(C)(C(=O)O)O2 (centres unmarked) [Trolox, 6-hydroxy-2,5,7,8-tetramethylchromane-2-carboxylic acid, reference compound] |  |  |  |  | 13.8 ± 0.2 µM |  |  |  |  |  |  |
| CCN(C)C(=O)Oc1cccc(NC(=O)/C=C/C=C/c2ccc3c(c2)OCO3)c1 [4AY4, 3-((2E,4E)-5-(Benzo[d][1,3]dioxol-5-yl)penta-2,4-dienamido)phenyl ethyl(methyl)carbamate] | 14.51 ± 0.04 µM | capable of rescuing the cell viability; also recorded: significantly improved cell viability |  | <50% |  |  | 0.9 | 15.2 ± 0.4 µM | 23 ± 3% | 1 µM | 2.5 µM |
| CCN(C)C(=O)Oc1cccc(NC(=O)/C=C/C=C/c2ccc(O)c(O)c2)c1 [4AY6, 3-((2E,4E)-5-(3,4-Dihydroxyphenyl)penta-2,4-dienamido)phenyl ethyl(methyl)carbamate] | 5 ± 1 µM |  | 75 ± 7% | 93.1 ± 0.8% | 28 ± 0.4 µM | 1 µM | 0.9 | 5.7 ± 0.6 µM |  |  |  |
| CCN(C)C(=O)Oc1cccc(NC(=O)/C=C/c2ccc3c(c2)OCO3)c1 [4AY3, (E)-3-(3-(Benzo[d][1,3]dioxol-5-yl)acrylamido)phenyl ethyl(methyl)carbamate] | 50.5 ± 0.1 µM |  | 45 ± 4% | <50% |  | 5 µM | 16.3 | 3.1 ± 0.4 µM |  |  |  |
| COc1cc(/C=C/C(=O)CC(=O)/C=C/c2ccc(O)c(OC)c2)ccc1O [Curcumin, reference compound] |  |  | 77 ± 1% |  |  |  |  |  |  |  |  |
| COc1cc(C(=O)Nc2cccc(OC(=O)N(C)C)c2)cc(OC)c1O [4CY1, 3-(4-Hydroxy-3,5-dimethoxybenzamido)phenyl dimethylcarbamate] | > 200 µM |  |  | <50% |  | 5 µM |  | 68 ± 7 µM | 31 ± 3% |  |  |
| CCN(C)C(=O)Oc1cccc(NC(=O)c2cc(OC)c(O)c(OC)c2)c1 [4AY1, 3-(4-Hydroxy-3,5-dimethoxybenzamido)phenyl ethyl(methyl)carbamate] | > 200 µM |  | 20 ± 2% | <50% |  | 10 µM |  | 31 ± 2 µM |  |  |  |
| CCN(C)C(=O)Oc1cccc(NC(=O)/C=C/c2ccc(O)c(O)c2)c1 [4AY5, (E)-3-(3-(3,4-Dihydroxyphenyl)acrylamido)phenyl ethyl(methyl)carbamate] | 110 ± 5 µM |  | 82 ± 5% | 96 ± 2% | 15.7 ± 0.4 µM | 0.5 µM | 15.3 | 7.2 ± 0.3 µM |  |  |  |
